In article PMC10222464, “Pharmacokinetic Study and Metabolite Identification of CAM106 in Rats by Validated UHPLC-MS/MS” (Pharmaceuticals, 2023):
“Also recorded” adds a separate entry of the source. Read-outs that look alike come from different tables or passages of the source.

What was measured:
[1] = system: influenza virus B; conditions: cited from earlier work
[2] = Stability of CAM106 QC samples (rat plasma, stock solution) under different conditions; format: physicochemical; conditions: for Accuracy, autosampler stability 0 h / Accuracy, autosampler stability 4 h / Accuracy, autosampler stability 8 h / Accuracy, autosampler stability 12 h: autosampler 10 °C; for Accuracy, room temperature: room temperature 12 h; for Accuracy, stock solution 15 days: stock solution 15 days at −20 °C; for Accuracy, thaw: three freeze–thaw cycles; for Accuracy, long-term stability 1 day / Accuracy, long-term stability 7 days: −80 °C
Description: Three quality control (QC) concentrations of CAM106 were used for stability testing under five conditions: in the autosampler for 0, 4, 8, and 12 h; long-term stability at −80 °C for 1 and 7 days; stock solution for 15 days at −20 °C; at room temperature for 12 h; and three freeze–thaw cycles.
The stability tests were conducted with rat plasma containing CAM106 through the analysis of 3 replicates at 10.64, 106.38, and 638.30 ng/mL. This typically comprises short-term stability (room temperature), long-term stability (−80 °C), post-preparation stability (autosampler, 10 °C), and freeze–thaw cycle stability (room temper and −80 °C).

[3] = system: influenza virus B; assay: Anti-influenza activity (IC50) against influenza virus B; format: cell-based; conditions: CAM106 versus rupestonic acid
[4] = Metabolite identification in rat plasma, urine and feces by high-resolution mass spectrometry; conditions: √ found, × not found
[5] = system: H3N2; parameters: method as in PMID 22625417; conditions: read-out: IC50 for H3N2 virus; cited from earlier work
[6] = system: rats; assay: Observation of toxicity / adverse reactions in rats after dosing; format: in vivo, Sprague Dawley (SD) rats
[7] = Pharmacokinetic study in rats after oral and intravenous administration (UHPLC-MS/MS, non-compartment analysis); format: in vivo, Sprague Dawley (SD) rats; conditions: for MRT inf: read-out: MRT0–inf; for MRT last: read-out: MRT0–t
Description: By using the UHPLC–MS/MS method, we successfully performed accurate quantification of CAM106 in rat plasma, and a non-compartment analysis was used to characterize the pharmacokinetic profiles of CAM106. […] After intravenous administration, T1/2 and Vd were 1.34 ± 0.64 h and 16624.89 ± 8171.11 mL/kg, respectively. […] The mean retention times after oral and intravenous administration were 3.42 ± 0.73 h and 0.63 ± 0.17 h, respectively.
All twelve male Sprague Dawley (SD) rats (weight 200 ± 20 g) were purchased from Xinjiang Medical University (Xinjiang, China). […] For the pharmacokinetic study, twelve rats were randomized into two groups (n = 6). The rats were fasted overnight before the experiment but had free access to water. […] For the oral administration group, CAM106 was intragastrically administered to the rats at a dose of 180 mg/kg. Approximately 0.2 mL of blood was drawn from the ophthalmic veins at 0, 0.25, 0.5, 0.75, 1, 1.5, 2, 4, and 10 h. For intravenous administration, CAM106 was injected into the tail at a dose of 18 mg/kg. About 0.2 mL of blood (from the ophthalmic veins) was drawn at 0, 0.25, 0.5, 0.75, 1, 1.5, 2, 4, and 6 h. After that, 1.5 mL polyethylene tubes containing EDTA were used to collect the plasma. The blood samples were centrifuged at 19,800× g for 7 min after which the supernatant was collected and stored at −80 °C for further analysis.
A 10 µL volume of methanol was added to 100 µL of each plasma sample and vortexed for 3 s (3000 rpm). Then, the mixtures were vortexed for three seconds while receiving 10 µL of internal standard (3000 rpm). A volume of 350 µL acetonitrile was added to 100 µL of each plasma sample. The mixtures were vortexed for 1 min and centrifuged for 7 min at 19800 g. A 100 µL aliquot of the supernatant was stored and 5 µL was subjected to UHPLC–MS/MS analysis.
For the pharmacokinetic study, the chromatographic separation was carried out on an Acquity UHPLC BEH C18 column (2.1 × 75 mm, 1.7 µm) with a filter. The column oven was set at 35 °C. The mobile phase aqueous solution (A, containing 0.1% formic acid) and acetonitrile (B) worked within 0–3.5 min with 60% B. The injection volume was set at 5 µL, with a flow rate of 0.2 mL/min. By using the parallel reaction monitoring (PRM) mode, the CAM106 and internal standard were found. The following adjustments were made to the electrospray ionization (ESI) source parameters: high collision dissociation cell (HCD) energy, 27 eV (for CAM106) and 42 eV (for the IS); capillary temperature, 320 °C; S-lens RF level, 55 V; automatic gain control (AGC) target, 1e^6; maximum IT, 100 ms; spray voltage, 3.2 kV.

[8] = system: Kun Ming mice; parameters: method as in earlier work; conditions: 25 mg/kg; cited from earlier work
[9] = Water solubility; format: physicochemical
[10] = system: H1N1; parameters: method as in PMID 22625417; conditions: read-out: IC50 for H1N1 virus; cited from earlier work
[11] = in vivo
[12] = IV 18.0 mg/kg, n = 6, mean ± SD
[13] = PO 180.0 mg/kg, n = 6, mean ± SD
[14] = male, Sprague Dawley, rat, plasma, IV 18.0 mg/kg, n = 6, mean ± SD
[15] = male, Sprague Dawley, rat, plasma, PO 180.0 mg/kg, n = 6, mean ± SD

C=C(C(=O)NCc1cc(-c2ccc(F)cc2)no1)C1CCC(C)C2CC(=O)C(C)=C2C1 (stereo not drawn) [CAM106]
IC50 ([1]; read-out: IC50 for B virus): 3250 nM | Accuracy, autosampler stability 0 h ([2]; 10.64 ng/mL): 95.02 | Accuracy, autosampler stability 4 h ([2]; 10.64 ng/mL): 93.52 | Accuracy, autosampler stability 8 h ([2]; 10.64 ng/mL): 91.35 | Accuracy, autosampler stability 12 h ([2]; 10.64 ng/mL): 100.38 | Accuracy, room temperature ([2]; 10.64 ng/mL): 96.71 | Accuracy, stock solution 15 days ([2]; 10.64 ng/mL): 91.26 | Accuracy, thaw ([2]; 10.64 ng/mL): 97.21 | Accuracy, long-term stability 1 day ([2]; 10.64 ng/mL): 97.93 | Accuracy, long-term stability 7 days ([2]; 10.64 ng/mL): 103.20 | Accuracy, autosampler stability 0 h ([2]; 106.38 ng/mL): 106.05 | Accuracy, autosampler stability 4 h ([2]; 106.38 ng/mL): 101.96 | Accuracy, autosampler stability 8 h ([2]; 106.38 ng/mL): 101.46 | Accuracy, autosampler stability 12 h ([2]; 106.38 ng/mL): 98.88 | Accuracy, room temperature ([2]; 106.38 ng/mL): 101.12 | Accuracy, stock solution 15 days ([2]; 106.38 ng/mL): 108.39 | Accuracy, thaw ([2]; 106.38 ng/mL): 106.13 | Accuracy, long-term stability 1 day ([2]; 106.38 ng/mL): 104.02 | Accuracy, long-term stability 7 days ([2]; 106.38 ng/mL): 94.03 | Accuracy, autosampler stability 0 h ([2]; 638.30 ng/mL): 100.00 | Accuracy, autosampler stability 4 h ([2]; 638.30 ng/mL): 102.58 | Accuracy, autosampler stability 8 h ([2]; 638.30 ng/mL): 97.09 | Accuracy, autosampler stability 12 h ([2]; 638.30 ng/mL): 96.48 | Accuracy, room temperature ([2]; 638.30 ng/mL): 102.21 | Accuracy, stock solution 15 days ([2]; 638.30 ng/mL): 95.27 | Accuracy, thaw ([2]; 638.30 ng/mL): 100.09 | Accuracy, long-term stability 1 day ([2]; 638.30 ng/mL): 103.73 | Accuracy, long-term stability 7 days ([2]; 638.30 ng/mL): 90.36 | IC50 against influenza virus B relative to rupestonic acid [3]: about 35 fold | Detected in rat feces (F) ([4]; rat feces 0–48 h after administration of CAM106): √ | Detected in rat urine (U) ([4]; rat urine 0–48 h after administration of CAM106): √ | IC50 [5]: 1090 nM | Signs of toxicity ([6]; 180 mg/kg oral and 18 mg/kg intravenous for 3 days): no signs of toxicity were observed | Adverse reactions or acute toxicity ([6]; oral 180 mg/kg or intravenous 18 mg/kg): No adverse reactions or acute toxicity were observed | AUC0–inf [7, 12]: 1287.93 ± 549.25 h·(ng/mL) | AUC0–t [7, 12]: 1255.32 ± 544.72 h·(ng/mL) | AUC0–inf [7, 13]: 294.19 ± 221.69 h·(ng/mL) | AUC0–t [7, 13]: 200.94 ± 87.45 h·(ng/mL) | Vd [7, 13]: 4,605,807.05 ± 2,044,928.13 mL/kg | clearance [7, 14]: 277 mL/min/kg | half-life [7, 14]: 1.34 ± 0.64 h | MRT inf [7, 14]: 0.79 ± 0.23 h | MRT last [7, 14]: 0.63 ± 0.17 h | Vd ([7]; male, Sprague Dawley, rat, plasma, IV 18.0 mg/kg, n = 6, mean ± SD, read-out: Vd): 27.4 L/kg | Cmax [7, 15]: 61 ± 30.8 ng/mL | Tmax [7, 15]: 1.21 ± 0.51 h | half-life [7, 15]: 4.56 ± 2.31 h | MRT inf [7, 15]: 6.69 ± 3.57 h | MRT last [7, 15]: 3.42 ± 0.73 h | bioavailability ([7]; male, Sprague Dawley, rat, plasma, oral, 180 mg/kg, PO 180.0 mg/kg versus IV 18.0 mg/kg, read-out: F (%), absolute (oral) bioavailability): ~1.6% | Cmax ([7]; male, Sprague-Dawley, rat, plasma, IV 18.0 mg/kg, n = 6, mean ± SD): 2310 ± 1000 ng/mL | Toxic response [8]: no toxic response | Solubility in water [9]: poorly soluble in water; also recorded: weak water solubility | IC50 [10]: 970 nM

C=C(C(N)=O)C1CCC(C)C2CC(=O)C(C)=C2C1 (stereo not drawn) [M1]
Detected in rat feces (F) [11]: √ | Detected in rat urine (U) [11]: √

C=C(C(=O)N(C)C)C1CCC(C)C2CC(=O)C(C)=C2C1 (stereo not drawn) [M4]
Detected in rat feces (F) [11]: √ | Detected in rat urine (U) [11]: ×

C=C(C(=O)NCc1cc(-c2ccc(F)cc2)no1)C1CC[C@H](C(=O)O)C2CC(=O)C(C)=C2C1 (stereo partly drawn) [M5]
Detected in rat feces (F) [11]: × | Detected in rat urine (U) [11]: √

C=C(C(=O)NCC1=CC(c2ccc(F)cc2)NO1)C1CCC(C)C2CC(=O)C(C)=C2C1 (stereo not drawn) [M8]
Detected in rat feces (F) [11]: √ | Detected in rat urine (U) [11]: ×

C=C(C(=O)O)[C@H]1CC[C@H](C)[C@@H]2CC(=O)C(C)=C2C1 [rupestonic acid, reference compound]
IC50 ([1]; read-out: IC50 for virus B): 116000 nM
